Laboratory results: patent publication US9931373B2, “Method of reducing cancer cell proliferation by administering recombinant alpha-fetoprotein” (priority 2005, dated 2018)

Experiments:
[1] = system: Human breast cancer cells MCF-7; assay: Combined treatment of MCF-7 cells with chemotherapeutic agents and rhAFP, MTT or H3-thymidine; assay type: cell-based; conditions: MCF-7, 72 hrs, agent with addition of 0.1 mg/ml of rhAFP, suboptimal doses, FIG. 8
Method: Cell proliferation was assessed by H3-thymidine incorporation assay or by MTT technique.
Human breast cancer cells MCF-7 were plated onto 96-well plastic wells (Costar) in 10^4 cells/ml in DMEM medium with addition of 2% fetal calf serum and were treated during 72 hrs with one of chemotherapeutic agents: doxorubicin, cysplatin, etoposide, metatrexate or those with addition of 0.1 mg/ml of rhAFP. Cytotoxic effect was estimated by MTT assay or H3-thymidine incorporation assay. It was observed synergistic enhance of the total tumor-suppressive effect in suboptimal doses of all agents in the presence of AFP (FIG. 8).

[2] = system: syngeneic leukemia cells P388; assay: Syngeneic acute leukemia P388 in BDF1 mice, survival over 30 days; assay type: in vivo; conditions: for T (survival, days): single injection
Description: We have studied the effect of combined treatment with AFP+Dox of acute leukemia in mice BDF1 with transplanted intrapleurally syngeneic P388 leukemia cells. BDF-1 mice (84 male, 28 mice per treatment) were implanted with lethal dose of 12×10^6 syngeneic leukemia cells P388 in the pleural region. Animals were subjected to monotherapy with Dox and combined therapy with rhAFP/Dox upon simultaneous single injection of drugs in various doses. Animal survival was compared over 30 days.

rhAFP = target: T1, rhAFP (Homo sapiens, UniProt P02771); assay: Formation of noncovalent complexes with rhAFP, absorption spectra and Sephadex G-25; assay type: binding; conditions: steady-state absorption; curcumin 30 μM, rhAFP 5 μM to 40 μM, FIG. 12A
T1 construct: pre-pro secretion region of yeast MFalpha1 (secretion leader, removed on secretory processing) (N, cleaved yes); made in house; host or cells: Saccharomyces cerevisiae YBS723/pKX (secreted into the culture liquid)
T1 sequence (P02771 20-609): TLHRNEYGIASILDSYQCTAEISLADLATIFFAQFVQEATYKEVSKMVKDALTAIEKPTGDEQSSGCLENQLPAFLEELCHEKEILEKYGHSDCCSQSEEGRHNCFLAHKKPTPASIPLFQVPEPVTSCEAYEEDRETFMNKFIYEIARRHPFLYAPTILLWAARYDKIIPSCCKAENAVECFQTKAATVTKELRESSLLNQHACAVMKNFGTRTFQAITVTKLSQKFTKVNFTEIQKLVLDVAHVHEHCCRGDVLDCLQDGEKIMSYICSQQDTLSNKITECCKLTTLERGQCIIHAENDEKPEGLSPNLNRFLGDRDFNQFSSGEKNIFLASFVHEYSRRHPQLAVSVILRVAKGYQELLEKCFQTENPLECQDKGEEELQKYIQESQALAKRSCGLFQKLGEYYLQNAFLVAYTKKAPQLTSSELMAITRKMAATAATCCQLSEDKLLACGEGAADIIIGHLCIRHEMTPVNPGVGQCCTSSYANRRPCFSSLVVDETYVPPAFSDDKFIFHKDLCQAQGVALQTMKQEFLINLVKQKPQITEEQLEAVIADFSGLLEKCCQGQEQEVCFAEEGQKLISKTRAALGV
Method: Absorption spectra of aqueous solutions containing 30 μM of curcumin and various doses of rhAFP: (1) 30 μM of curcumin; (2) 30 μM of curcumin+20 μM rhAFP; (3) 30 μM of curcumin+40 μM rhAFP. Panel at the top (A): absorption spectra of non-covalent complex of rhAFP/curcumin after chromatography through a column with Sephadex G-25.
Phytochemicals are nonnutritive components of plants that are currently being studies in chemoprevention and combined therapy of cancer. […] Other plant-derived tumoricidal compounds—flavonoids, isoflavonoids, flavons, flavanones, isoflavanones have been widely investigated for their ability to suppress tumor growth in vitro. Some of them display significant homology with steroids and mimic reveal antagonistic or agonistic activity in mammals. Ability of AFP to bind isoflavanoids was documented by various researches (Deutsch H. F, 1991, Adv. Canc. Res. 56, 253-312). […] The absorption spectra of solutions containing curcumin and rhAFP were followed keeping concentration of curcumin constant 30 μM and rhAFP varied from 5 μM to 40 μM. […] FIG. 12A gives the absorption spectral changes in curcumin in the presence of rhAFP in the wavelength range of 250-550 nm. […] Whereas after addition of rhAFP the maximum of absorbance of curcumin blue-shifted from 426 to 350 nm (curve 3). […]

tumor cells = assay: Combined administration of rhAFP and plant-derived compounds, suppression of tumor cell growth; assay type: cell-based; conditions: FIG. 12B, C
[3] = system: cells of B-cellular lymphoma Raji; assay: Suppression of growth of Raji cells in vitro, [H3]-thymidine incorporation; assay type: cell-based, human; conditions: 12 hours with AFP, dose-dependent, FIG. 5
Method: The functional activity of rAFP and the modified forms thereof were determined according to its capability of suppressing the growth of cells of B-cellular lymphoma Raji in the culture in vitro, as earlier described (Semenkova, L. 1997, Tumor Biol. 18, 261-274; Dudich E. I., et al., 1998, Tumor Biol. 198, 30-40). Preliminarily washed by a fresh medium, Raji cells were placed into each cell of a 96-alverolar plate according to 5×10^3 in 0.1 ml of a medium RPMI-1640 in the presence of a 10% fetal calf serum, then different doses of AFP were added for 12 hours. Proliferation of the cells was measured by a standard method by the introduction of [H^3]-thymidine during the last 4 hours of culturing. For comparison, the dose-dependent reactivity was studies for two samples of AFP of embryonal origin embrAFP and yeast rAFP (FIG. 5). […] Similarly, in order to determine the activity to preparations on the base of AFP in vitro, any other lines of cancer cells may be used that are sensitive to the suppressive action of AFP, such as human hepatocarcinoma HepG2, breast cancer MCF-7, prostate cancer LnCap, myeloblastoma U-937 and others (Semenkova, L. 1997, Tumor Biol. 18, 261-274; Dudich E. I., et al., 1998, Tumor Biol. 198, 30-40).

COc1cc([C@@H]2c3cc4c(cc3[C@@H](O[C@@H]3O[C@@H]5CO[C@@H](C)O[C@H]5[C@H](O)[C@H]3O)[C@H]3COC(=O)[C@H]23)OCO4)cc(OC)c1O [etoposide]
total tumor-suppressive effect of agent together with rhAFP [1]: significant synergistic tumor-suppression

N.N.[Cl][Pt][Cl] [cysplatin]
total tumor-suppressive effect of agent together with rhAFP [1]: significant synergistic tumor-suppression

CN(Cc1cnc2nc(N)nc(N)c2n1)c1ccc(C(=O)N[C@@H](CCC(=O)O)C(=O)O)cc1 [metatrexate]
total tumor-suppressive effect of agent together with rhAFP [1]: significant synergistic tumor-suppression

COc1cccc2c1C(=O)c1c(O)c3c(c(O)c1C2=O)C[C@@](O)(C(=O)CO)C[C@@H]3O[C@H]1C[C@H](N)[C@H](O)[C@H](C)O1 [Dox, doxorubicin]
total tumor-suppressive effect of agent together with rhAFP [1]: significant synergistic tumor-suppression | Survival more 30 days ([2]; Dox 3.0 mg/kg): 0 | T/C % ([2]; Dox 3.0 mg/kg): 303% | T (survival, days) ([2]; Dox 3.0 mg/kg): [13.9/17.1] 19.7 days | Survival more 30 days ([2]; Dox 5.0 mg/kg): 0 | T/C % ([2]; Dox 5.0 mg/kg): 315% | T (survival, days) ([2]; Dox 5.0 mg/kg): [17.0/22.4] 20.5 days | Survival more 30 days ([2]; Dox 1.o mg/kg): 0 | T/C % ([2]; Dox 1.o mg/kg): 238% | T (survival, days) ([2]; Dox 1.o mg/kg): 6.5 [6.2/6.8] 15.5 days

COc1cc(/C=C/C(=O)CC(=O)/C=C/c2ccc(O)c(OC)c2)ccc1O [curcumin]
formation of noncovalent complexes with rhAFP (rhAFP): form noncovalent complexes | total tumor suppressive effect upon combined treatment with rhAFP (tumor cells): significant enhance of the total tumor suppressive effect

O=c1c(-c2ccc(O)cc2)coc2cc(O[C@@H]3O[C@H](CO)[C@@H](O)[C@H](O)[C@H]3O)cc(O)c12 [genistin]
formation of noncovalent complexes with rhAFP (rhAFP): form noncovalent complexes | total tumor suppressive effect upon combined treatment with rhAFP (tumor cells): significant enhance of the total tumor suppressive effect

B1: embrAFP: purified AFP of embryonal origin, obtained from embryonic serum (protein, UniProt P02771 19-609, looked up)
Alpha-fetoprotein: RTLHRNEYGIASILDSYQCTAEISLADLATIFFAQFVQEATYKEVSKMVKDALTAIEKPTGDEQSSGCLENQLPAFLEELCHEKEILEKYGHSDCCSQSEEGRHNCFLAHKKPTPASIPLFQVPEPVTSCEAYEEDRETFMNKFIYEIARRHPFLYAPTILLWAARYDKIIPSCCKAENAVECFQTKAATVTKELRESSLLNQHACAVMKNFGTRTFQAITVTKLSQKFTKVNFTEIQKLVLDVAHVHEHCCRGDVLDCLQDGEKIMSYICSQQDTLSNKITECCKLTTLERGQCIIHAENDEKPEGLSPNLNRFLGDRDFNQFSSGEKNIFLASFVHEYSRRHPQLAVSVILRVAKGYQELLEKCFQTENPLECQDKGEEELQKYIQESQALAKRSCGLFQKLGEYYLQNAFLVAYTKKAPQLTSSELMAITRKMAATAATCCQLSEDKLLACGEGAADIIIGHLCIRHEMTPVNPGVGQCCTSSYANRRPCFSSLVVDETYVPPAFSDDKFIFHKDLCQAQGVALQTMKQEFLINLVKQKPQITEEQLEAVIADFSGLLEKCCQGQEQEVCFAEEGQKLISKTRAALGV
cytostatic activity, inhibition of growth of Raji cells [3]: expressed cytostatic activity
